# Measurements from article PMC4307180, “Overcoming myelosuppression due to synthetic lethal toxicity for FLT3-targeted acute myeloid leukemia therapy” (eLife, 2014).
# “Also recorded” adds a separate entry of the source. Where two headings read alike, the source gives them in different places.
# Experiments:
# [1] = system: AML patients; parameters: method as in Cortes et al., 2013; details: monotherapy, Phase II trial; ref Cortes et al., 2013; cited from earlier work
# [2] = system: KIT phosphorylation; parameters: method as in Griswold et al., 2004; details: ref Griswold et al., 2004; cited from earlier work
# [3] = target: PDGFRβ (Homo sapiens, UniProt P09619); parameters: purchased Reaction Biology Corporation (Malvern, PA); method as in Lopez et al., 2013; details: at 1 µM, panel of 319 kinases; ref Lopez et al., 2013; cited from earlier work
# [4] = target: T1, FLT3 (Homo sapiens, UniProt P36888); parameters: purchased Reaction Biology Corporation (Malvern, PA); method as in Lopez et al., 2013; details: at 1 µM, panel of 319 kinases; ref Lopez et al., 2013; cited from earlier work
# T1 sequence (P36888 27-993): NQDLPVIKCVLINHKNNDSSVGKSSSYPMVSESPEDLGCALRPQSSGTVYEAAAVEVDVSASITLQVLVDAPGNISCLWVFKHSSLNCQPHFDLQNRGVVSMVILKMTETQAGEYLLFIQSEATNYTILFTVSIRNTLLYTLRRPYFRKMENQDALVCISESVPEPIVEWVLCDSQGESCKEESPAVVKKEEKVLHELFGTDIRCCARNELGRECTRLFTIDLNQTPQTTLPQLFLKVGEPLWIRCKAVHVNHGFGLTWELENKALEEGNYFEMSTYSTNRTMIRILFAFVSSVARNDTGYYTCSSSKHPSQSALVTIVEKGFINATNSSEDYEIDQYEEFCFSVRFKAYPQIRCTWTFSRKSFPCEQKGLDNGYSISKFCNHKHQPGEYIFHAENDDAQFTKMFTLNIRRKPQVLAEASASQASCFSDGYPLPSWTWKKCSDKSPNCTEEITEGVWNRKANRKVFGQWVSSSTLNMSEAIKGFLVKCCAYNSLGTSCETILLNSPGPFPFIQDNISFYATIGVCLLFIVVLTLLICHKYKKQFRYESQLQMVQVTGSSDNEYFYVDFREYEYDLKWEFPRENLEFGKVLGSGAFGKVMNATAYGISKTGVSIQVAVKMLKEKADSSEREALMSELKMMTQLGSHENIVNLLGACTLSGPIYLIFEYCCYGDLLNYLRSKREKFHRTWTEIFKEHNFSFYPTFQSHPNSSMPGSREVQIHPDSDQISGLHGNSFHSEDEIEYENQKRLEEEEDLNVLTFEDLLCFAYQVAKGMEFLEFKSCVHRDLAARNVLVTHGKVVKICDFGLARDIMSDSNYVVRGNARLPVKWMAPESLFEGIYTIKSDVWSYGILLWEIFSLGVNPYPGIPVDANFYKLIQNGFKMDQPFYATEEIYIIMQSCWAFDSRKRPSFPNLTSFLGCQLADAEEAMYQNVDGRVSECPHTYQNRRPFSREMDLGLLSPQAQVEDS
# [5] = target: KIT (Homo sapiens, UniProt P10721); parameters: purchased Reaction Biology Corporation (Malvern, PA); method as in Lopez et al., 2013; details: at 1 µM, panel of 319 kinases; ref Lopez et al., 2013; cited from earlier work
# [6] = target: PDGFRα (Homo sapiens, UniProt P16234); parameters: purchased Reaction Biology Corporation (Malvern, PA); method as in Lopez et al., 2013; details: at 1 µM, panel of 319 kinases; ref Lopez et al., 2013; cited from earlier work
# [7] = target: CSF1R (Homo sapiens, UniProt P07333); parameters: purchased Reaction Biology Corporation (Malvern, PA); method as in Lopez et al., 2013; details: at 1 µM, panel of 319 kinases; ref Lopez et al., 2013; cited from earlier work
# [8] = target: T2, purified FLT3 WT (Homo sapiens, UniProt P36888); experiment: Radiolabeled purified kinase assay (Figure 1B)
# T2 sequence (P36888 27-993): T1 sequence (P36888 27-993)
# [9] = system: HMC1.1 cells (KIT V560G); experiment: Cell proliferation/viability assay, HMC1.1; assay type: cell-based, human; details: Homo sapiens; Kit V560 G, 48 hr, ± SEM
# Protocol: (§1) Exponentially growing cells (5 × 10^3 cells per well) were plated in each well of a 96-well plate with 0.1 ml of RPMI 1640 + 10% (vol/vol) FCS containing the appropriate concentration of drug in triplicate, and cell viability was assessed after 48 hr as previously described ([Smith et al., 2012]). […] Log10-scale transformation of ratios, followed by conditional formatting using xcel spreadsheet software yielded the colored diagrams shown.
# [10] = system: MV4;11 cells (FLT3-ITD homozygous); experiment: Cell proliferation/viability assay, MV4;11; assay type: cell-based; details: Homo sapiens, 48 hr, ± SEM
# Protocol: as §1
# [11] = system: zebrafish embryos; experiment: Zebrafish embryonic development / WT morphology; assay type: in vivo, Danio rerio (zebrafish); details: 3 dpf, drug from 6 hpf
# Protocol: (§2) Figure 4. […] (N–P) Three categories of mpo transcription (N, normal; O, intermediate; P, severe) were defined based on the WISH results (three experiments). […] Scale bar equals 500 μm. Blue arrows indicate the pericardial edema, green arrows indicate tail shortening and curving, and red arrows indicate the FLT3-ITD AML mpo+ myeloid cells expansion. […] For all experiments: Zebrafish embryos were collected and kept in standard E3 medium at 28°C. Different concentrations of either drug were added to the E3 medium from 6 hr post fertilization (hpf) to 3 days post fertilization (dpf). Embryos treated with DMSO or 10 μM drug from 6 to 30 hpf were collected for mpo whole mount in situ hybridization (WISH) analysis. […] plasmid DNA containing FLT3/ITD sequence was microinjected into one-cell stage embryos, and the uninjected embryos were used as control. FLT3/ITD-injected embryos were treated with DMSO or 10 μM drug from 6 to 30 hpf.
# (§3) Wild-type (WT) zebrafish were maintained under standard conditions, and embryos were staged as described ([He et al., 2014]). The study was approved by the Committee of the Use of Live Animals for Teaching and Research in The University of Hong Kong.
# [12] = system: primary patient FLT3-ITD+ AML circulating blasts; experiment: Colony-forming assay, primary patient FLT3-ITD+ AML blasts; assay type: cell-based, human; details: at 1,000 nM; ca. 1,200 CFUs in DMSO plates
# Excerpt: (§4) Primary AML blood samples and/or marrow aspirates were obtained on an IRB-approved protocol at the University of California, San Francisco. Informed consent was obtained in accordance with the Declaration of Helsinki. Mononuclear cells were purified by density centrifugation (Ficoll–Paque Plus, GE Healthsciences) before cryopreservation in 10% (vol/vol) DMSO or FCS (primary ITD and D835-mutant assays, Figure 3A–C) or immediate use in assays (Normal BM and SPB, Figure 3D–F). Normal BM and stimulated peripheral blood (SPB) samples were collected from donors at the UCSF oncology/hematology division. Cells were then suspended in MethoCult methylcellulose (Stem Cell Technologies, product no. H4435 Enriched, Canada) in 15-ml Falcon tubes, vigorously vortexed, bubbles settled over 10 min. Triplicates then plated via blunt-nosed syringe (1.1 ml each) into 3-cm dishes, avoiding bubble generation, and each dish placed in a larger 10-cm dish with water trough in an incubator (37°C, 5% CO2) for 13–14 days. Colonies were counted individually using traditional microscopy. CFU and BFU types reported separately (CFU-GEMM colonies counted as one of each).
# [13] = system: normal bone marrow (BM) and stimulated peripheral blood (SPB) hematopoietic progenitors; experiment: Colony-forming assay, normal BM and stimulated peripheral blood; assay type: cell-based, human
# Excerpt: as §4, with “each). Results shown for FLT3 ITD primary blasts (Figure 3B) are a combination of leukemic blast colonies and BFU colonies.” for “each).”
# [14] = target: T3, p-KIT in HMC1.1 cells (Homo sapiens, UniProt P10721, V560G); experiment: Immunoblot of p-KIT in HMC1.1; assay type: cell-based; details: immunoblot, 90-min incubation
# T3 construct: endogenous in cells; host or cells: HMC1.1
# [15] = system: HMC1.1 cells; experiment: Caspase-3 activation (apoptosis), HMC1.1; assay type: cell-based, human; details: 48 hr, up to 2,500 nM
# Protocol: Cells were fixed with 4% (vol/vol) paraformaldehyde (Electron Microscopy Sciences) and permeabilized with 100% (vol/vol) methanol (Electron Microscopy Sciences, Hatfield, PA) followed by staining with a FITC-conjugated antiactive caspase-3 antibody (BD Pharmingen, San Jose, CA). Cells were run on a BD LSRFortessa cell analyzer, and data were analyzed using FlowJo (Tree Star Inc., Ashland, OR). Percentage of live cells was determined by negative staining for activated caspase-3 (see Figure 2B,C).
# [16] = system: Ba/F3 FLT3 ITD + A848P; experiment: Ba/F3 cell viability, FLT3 ITD + A848P; assay type: cell-based; details: Mus musculus, Ba/F3, 48 hr, ± SEM
# Protocol: (§5) Stable Ba/F3 lines were generated by retroviral spinfection with the appropriate mutated plasmid as previously described ([Smith et al., 2012]).
# as §1
# (§6) Mutations isolated in the screen were engineered into pMSCVpuroFLT3–ITD by QuikChange mutagenesis (Stratagene, La Jolla, CA) as previously described ([Smith et al., 2012]).
# [17] = system: Ba/F3 Parental + IL3; experiment: Ba/F3 cell viability, Parental + IL3; assay type: cell-based; details: Mus musculus, BaF3; Ba/F3, 48 hr, ± SEM
# Protocol: as §5, §1
# [18] = system: FLT3/ITD-injected zebrafish embryos; experiment: Zebrafish FLT3/ITD-induced mpo+ myeloid cell expansion; assay type: in vivo, Danio rerio (zebrafish); details: 10 μM, 6 to 30 hpf, read at 30 hpf
# Protocol: as §2, §3
# [19] = system: Ba/F3 FLT3 ITD + D835F; experiment: Ba/F3 cell viability, FLT3 ITD + D835F; assay type: cell-based; details: Mus musculus, Ba/F3, 48 hr, ± SEM
# Protocol: as §5, §1, §6
# [20] = system: mpo+ myeloid cells in zebrafish embryos; experiment: Zebrafish normal myelopoiesis, mpo WISH in posterior blood island; assay type: in vivo, Danio rerio (zebrafish); details: 10 μM, 6 to 30 hpf, read at 30 hpf, vs DMSO
# Protocol: as §2, §3
# [21] = system: primary patient FLT3 D835 AML circulating blasts; experiment: Colony-forming assay, primary patient FLT3-D835 AML blasts; assay type: cell-based, human; details: at 1,000 nM; ca. 120 for DMSO plates
# Excerpt: as §4
# [22] = system: AML patients; parameters: method as in Strati et al., 2014; details: ref Strati et al., 2014, cited from earlier work
# Chain of CSF1R (P07333 20-972): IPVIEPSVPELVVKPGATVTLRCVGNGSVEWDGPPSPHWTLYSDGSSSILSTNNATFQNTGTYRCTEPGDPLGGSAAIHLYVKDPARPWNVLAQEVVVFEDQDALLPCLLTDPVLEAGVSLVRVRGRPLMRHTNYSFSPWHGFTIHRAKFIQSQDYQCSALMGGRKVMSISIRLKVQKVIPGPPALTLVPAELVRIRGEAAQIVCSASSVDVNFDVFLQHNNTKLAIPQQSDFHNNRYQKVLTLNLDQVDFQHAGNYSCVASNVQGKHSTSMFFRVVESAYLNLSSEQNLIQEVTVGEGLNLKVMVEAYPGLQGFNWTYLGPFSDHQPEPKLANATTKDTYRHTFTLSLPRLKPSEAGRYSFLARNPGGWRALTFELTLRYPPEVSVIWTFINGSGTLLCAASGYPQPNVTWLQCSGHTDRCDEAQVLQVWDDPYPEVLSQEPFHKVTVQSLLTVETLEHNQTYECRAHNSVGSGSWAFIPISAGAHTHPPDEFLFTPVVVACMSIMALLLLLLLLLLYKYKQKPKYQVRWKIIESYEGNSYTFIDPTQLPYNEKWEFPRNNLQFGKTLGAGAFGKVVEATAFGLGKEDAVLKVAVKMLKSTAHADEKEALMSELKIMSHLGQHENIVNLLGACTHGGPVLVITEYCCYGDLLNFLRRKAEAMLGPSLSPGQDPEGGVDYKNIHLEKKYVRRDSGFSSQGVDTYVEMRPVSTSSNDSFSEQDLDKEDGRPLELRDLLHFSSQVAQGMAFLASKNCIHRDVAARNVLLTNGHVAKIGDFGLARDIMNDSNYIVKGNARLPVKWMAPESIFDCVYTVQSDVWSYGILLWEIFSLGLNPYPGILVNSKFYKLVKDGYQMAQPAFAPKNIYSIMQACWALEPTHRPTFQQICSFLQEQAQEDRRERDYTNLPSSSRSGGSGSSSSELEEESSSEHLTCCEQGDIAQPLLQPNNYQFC
# T3 sequence (P10721 26-976 V560G): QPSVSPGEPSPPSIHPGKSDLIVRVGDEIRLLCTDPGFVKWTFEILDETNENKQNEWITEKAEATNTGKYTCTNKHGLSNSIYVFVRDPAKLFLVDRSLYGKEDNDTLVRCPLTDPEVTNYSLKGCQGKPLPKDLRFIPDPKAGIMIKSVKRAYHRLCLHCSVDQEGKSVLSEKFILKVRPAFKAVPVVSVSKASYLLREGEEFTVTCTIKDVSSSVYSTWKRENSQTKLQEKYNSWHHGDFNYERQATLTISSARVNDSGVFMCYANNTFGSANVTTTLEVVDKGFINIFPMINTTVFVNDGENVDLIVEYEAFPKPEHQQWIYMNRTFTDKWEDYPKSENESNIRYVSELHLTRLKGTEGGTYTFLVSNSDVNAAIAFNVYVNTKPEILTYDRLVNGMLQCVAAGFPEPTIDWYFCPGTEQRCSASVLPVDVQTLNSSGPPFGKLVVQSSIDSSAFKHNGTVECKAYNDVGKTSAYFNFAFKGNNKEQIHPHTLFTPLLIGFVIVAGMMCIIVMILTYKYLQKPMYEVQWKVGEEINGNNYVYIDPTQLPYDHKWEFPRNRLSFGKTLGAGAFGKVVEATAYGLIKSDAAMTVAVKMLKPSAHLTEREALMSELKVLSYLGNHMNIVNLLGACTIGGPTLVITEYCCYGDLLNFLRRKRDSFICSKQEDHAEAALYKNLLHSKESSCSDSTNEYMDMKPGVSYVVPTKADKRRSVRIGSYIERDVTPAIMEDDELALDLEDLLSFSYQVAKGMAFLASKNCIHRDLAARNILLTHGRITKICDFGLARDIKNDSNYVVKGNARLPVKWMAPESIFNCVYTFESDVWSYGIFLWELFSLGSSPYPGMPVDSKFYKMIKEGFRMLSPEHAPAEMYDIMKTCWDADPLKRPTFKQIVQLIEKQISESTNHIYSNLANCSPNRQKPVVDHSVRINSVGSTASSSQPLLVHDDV
# Chain of KIT (P10721 26-976): as the sequence (P10721 26-976 V560G) above, with G535V counted along it
# Chain of PDGFRβ (P09619 33-1106): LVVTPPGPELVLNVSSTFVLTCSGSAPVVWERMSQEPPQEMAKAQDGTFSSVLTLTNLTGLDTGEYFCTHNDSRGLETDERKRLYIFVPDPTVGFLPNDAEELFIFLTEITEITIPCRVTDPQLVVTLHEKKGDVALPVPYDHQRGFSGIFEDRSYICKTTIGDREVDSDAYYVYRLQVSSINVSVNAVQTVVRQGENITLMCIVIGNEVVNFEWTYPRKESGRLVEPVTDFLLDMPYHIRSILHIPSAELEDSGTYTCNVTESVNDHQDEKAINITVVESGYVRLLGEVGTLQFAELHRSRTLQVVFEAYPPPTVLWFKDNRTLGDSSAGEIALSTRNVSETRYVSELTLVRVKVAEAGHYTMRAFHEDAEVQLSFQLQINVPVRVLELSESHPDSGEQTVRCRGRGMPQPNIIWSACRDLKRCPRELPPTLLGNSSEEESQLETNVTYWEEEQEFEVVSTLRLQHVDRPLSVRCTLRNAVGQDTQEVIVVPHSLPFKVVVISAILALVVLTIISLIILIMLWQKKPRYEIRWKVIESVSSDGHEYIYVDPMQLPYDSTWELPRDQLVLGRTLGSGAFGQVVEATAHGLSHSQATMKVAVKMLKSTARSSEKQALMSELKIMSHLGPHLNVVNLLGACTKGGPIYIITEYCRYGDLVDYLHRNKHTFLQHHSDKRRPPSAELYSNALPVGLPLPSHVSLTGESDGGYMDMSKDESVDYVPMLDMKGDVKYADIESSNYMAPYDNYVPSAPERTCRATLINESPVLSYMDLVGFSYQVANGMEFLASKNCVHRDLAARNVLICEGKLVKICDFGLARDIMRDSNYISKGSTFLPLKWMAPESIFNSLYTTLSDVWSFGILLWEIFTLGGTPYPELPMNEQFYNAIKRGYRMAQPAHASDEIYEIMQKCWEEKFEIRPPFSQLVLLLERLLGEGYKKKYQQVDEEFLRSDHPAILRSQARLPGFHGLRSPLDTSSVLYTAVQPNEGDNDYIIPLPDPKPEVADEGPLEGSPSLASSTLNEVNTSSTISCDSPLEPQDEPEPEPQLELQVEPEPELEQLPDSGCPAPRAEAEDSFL
# Chain of PDGFRα (P16234 24-1089): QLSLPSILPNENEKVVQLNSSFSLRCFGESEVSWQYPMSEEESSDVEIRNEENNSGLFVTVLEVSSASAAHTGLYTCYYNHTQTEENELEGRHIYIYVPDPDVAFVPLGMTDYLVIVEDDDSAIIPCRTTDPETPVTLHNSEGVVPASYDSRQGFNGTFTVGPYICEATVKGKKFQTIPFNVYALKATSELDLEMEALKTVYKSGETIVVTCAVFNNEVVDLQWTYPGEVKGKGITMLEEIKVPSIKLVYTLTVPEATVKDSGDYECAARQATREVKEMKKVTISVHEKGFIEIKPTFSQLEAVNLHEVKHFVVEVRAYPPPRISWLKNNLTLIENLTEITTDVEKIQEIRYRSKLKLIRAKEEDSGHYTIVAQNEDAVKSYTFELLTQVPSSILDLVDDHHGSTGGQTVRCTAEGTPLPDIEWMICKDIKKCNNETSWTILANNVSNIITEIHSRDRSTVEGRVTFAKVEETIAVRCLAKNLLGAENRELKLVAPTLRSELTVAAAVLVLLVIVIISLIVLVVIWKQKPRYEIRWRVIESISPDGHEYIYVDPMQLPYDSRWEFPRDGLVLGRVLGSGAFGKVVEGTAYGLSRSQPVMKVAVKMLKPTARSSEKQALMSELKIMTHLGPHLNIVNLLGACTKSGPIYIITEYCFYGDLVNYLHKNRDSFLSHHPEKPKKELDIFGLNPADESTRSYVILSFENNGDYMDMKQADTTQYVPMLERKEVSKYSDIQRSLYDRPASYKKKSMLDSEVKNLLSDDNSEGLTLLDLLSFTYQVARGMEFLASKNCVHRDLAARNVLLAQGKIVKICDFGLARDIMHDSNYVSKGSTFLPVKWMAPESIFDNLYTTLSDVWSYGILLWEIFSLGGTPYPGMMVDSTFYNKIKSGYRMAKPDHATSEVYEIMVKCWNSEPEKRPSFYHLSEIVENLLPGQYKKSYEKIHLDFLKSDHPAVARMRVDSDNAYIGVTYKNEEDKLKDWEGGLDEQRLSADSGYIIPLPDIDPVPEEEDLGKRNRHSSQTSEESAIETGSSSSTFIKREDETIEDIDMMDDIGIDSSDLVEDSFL
structure (smiles),measurement,setting,value
"CC(C)(C)c1cc(NC(=O)Nc2ccc(-c3cn4c(n3)sc3cc(OCCN5CCOCC5)ccc34)cc2)no1.Cl.Cl [AC220, N-(5-tert-Butyl-isoxazol-3-yl)-N'-{4-[7-(2-morpholin-4-yl-ethoxy)imidazo[2,1-b][1,3]benzothiazol-2-yl]phenyl}urea Dihydrochloride]",CR rate,[1],50%
same,CRi rate,[1],45%
COc1cc2c(N3CCN(C(=O)Nc4ccc(OC(C)C)cc4)CC3)ncnc2cc1OCCCN1CCCCC1 [MLN518],IC50,[2],0.17 µM
CC(C)C[C@@H]1NC(=O)c2c1c1c3ccccc3n(CCCCN)c1c1[nH]c3ccccc3c21 [Star 12],inhibition of PDGFRβ,[3],< 10%
same,inhibition of FLT3,[4],57%
same,inhibition of KIT,[5],< 10%
same,inhibition of PDGFRα,[6],< 10%
same,inhibition of CSF1R,[7],< 10%
same,IC50,[8],0.524 ± 0.094 µM
"CO[C@@H]1[C@H](N(C)C(=O)c2ccccc2)C[C@H]2O[C@]1(C)n1c3ccccc3c3c4c(c5c6ccccc6n2c5c31)C(=O)NC4 [PKC412, N-benzoylstaurosporine, reference compound]",IC50,[9],354 ± 60 nM
same,IC50,[10],16 ± 5 nM
same,effect on zebrafish embryonic development / morphology,[11],substantial morphological defects to the heart at 1 μM
same,"raw colony numbers, FLT3-ITD+ blasts",[12],ca. 20
same,"raw colony numbers, normal BM","[13]; at 1,000 nM",zero in most PKC412-treated replicates
same,effect on normal hematopoietic colony formation (CFU and BFU),"[13]; normal BM and SPB donors, up to 1,000 nM",eliminates most normal hematopoietic colony forming potential at 1 mM; also recorded: dose-dependent inhibition of colony formation
same,p-KIT and downstream signaling inhibition in HMC1.1 cells,[14],inhibited p-KIT and downstream signaling to a greater degree
same,apoptosis/toxicity (caspase-3) in KIT-addicted HMC1.1 cells,[15],potent toxicity
same,IC50,[16],9 ± 6 nM
same,IC50,[17],243 ± 73 nM
same,effect on FLT3/ITD-induced mpo+ myeloid cells expansion,[18],efficaciousness similar to Star 27
same,IC50,[19],9 ± 3 nM
same,effect on mpo+ myeloid cells development in the PBI,[20],statistically significant granulogenesis/myelosuppression; also recorded: statistically significant suppression of myelopoiesis
same,"raw colony numbers, FLT3 D835Y blasts",[21],ca. 25
same,CR rate,[22]; combined with cytotoxic agents,25%
same,incomplete recovery of peripheral blood counts (CRi) rate,[22]; combined with cytotoxic agents,20%
same,patients developing grade 3/4 myelosuppression,[22]; combined with cytotoxic agents,over 90%
same,"complete remission (CR), single agent",[22]; single agent Phase II trial,failed to achieve a single complete remission
